Values quoted from earlier work as cited in patent EP1586313A1, “Pharmaceutical composition with metoclopramide and process for its preparation” (The Jordanian Pharmaceutical Manufacturing Co. Ltd., priority 2004, dated 2005).

Conditions: reportedly

CCN(CC)CCNC(=O)c1cc(Cl)c(N)cc1OC.Cl.O [metoclopramide, 4-amino-5-chloro-N-(2-diethylaminoethyl)-2-methoxybenzamide hydrochloride monohydrate]
peak plasma metoclopramide concentrations associated with metoclopramide induced akathisia: greater than 120 ng/ml
